Laboratory results taken from ChEMBL document CHEMBL4673394, “Discovery of a Series of Pyrazinone RORγ Antagonists and Identification of the Clinical Candidate BI 730357” (ACS Med Chem Lett, 2021).

Assays:
[1] = Clearance in Wistar Han rat at 1 mg/kg, iv measured at 5 to 1440 mins relative to hepatic blood flow; type: ADME, organism-based; conditions: in vivo, time 5-1440 min
[2] = Oral bioavailability in Wistar Han rat at 3 mg/kg measured at 15 to 1440 mins; type: ADME, organism-based; conditions: in vivo, time 15-1440 min
[3] = Permeability in human Caco2 cells; type: ADME, cell-based; conditions: Caco-2, read-out: permeability

| CL [1] | bioavailability [2] | Papp [3] | Compound |
| --- | --- | --- | --- |
| 57% |  |  | CNS(=O)(=O)c1ccc(CNc2nc3cnc(-c4c(C)ncnc4C4CC4)nc3n([C@@H](C)C3CC3)c2=O)nc1 |
| 16% | 71% |  | CCS(=O)(=O)c1ccc(CNc2nc3cnc(-c4c(C)ncnc4C4CC4)nc3n(C(C)C)c2=O)nc1 |
| 34% | 90% |  | CCS(=O)(=O)c1ccc(CNC(=O)N2CC(C)(C)c3nc(-c4c(OC)ncnc4C4CC4)ccc32)cc1 |
| 42% | 20% |  | CC[C@@H](C)n1c(=O)c(NCc2ccc(S(=O)(=O)CC)cn2)nc2cnc(-c3c(OC)ncnc3C3CC3)nc21 |
| 56% |  |  | CCS(=O)(=O)c1ccc(CNc2nc3cnc(-c4c(OC)ncnc4C4CC4)nc3n([C@@H](C)C3CC3)c2=O)nc1 |
| 32% | 70% |  | CCS(=O)(=O)c1ccc(CNc2nc3cnc(-c4c(OC)ncnc4C4CC4)nc3n(C(C)C)c2=O)nc1 |
| 44% |  |  | CCS(=O)(=O)c1ccc(CNc2nc3cnc(-c4c(OC)ncnc4C4CC4)nc3n([C@H](C)C3CC3)c2=O)nc1 |
| 23% |  |  | CCS(=O)(=O)c1ccc(CNc2nc3cnc(-c4c(C)ncnc4C4CC4)nc3n([C@@H](C)C3CC3)c2=O)nc1 |
| 29% |  |  | CCS(=O)(=O)c1cnc(CNc2nc3cnc(-c4c(C)ncnc4C4CC4)nc3n([C@@H](C)C3CC3)c2=O)nc1 |
| 10% |  |  | CCS(=O)(=O)c1ccc(CNc2nc3cnc(-c4c(OC)ncnc4C4CC4)nc3n([C@@H](C)C(F)(F)F)c2=O)nc1 |
| 19% | 61% |  | CCS(=O)(=O)c1ccc(CNc2nc3cnc(-c4c(C)ncnc4C4CC4)nc3n([C@@H](C)C3CC3)c2=O)cn1 |
| 16% | 70% | 110 ×10⁻⁶ cm/s | Cc1ncnc(C2CC2)c1-c1ncc2nc(NCc3ccc(S(C)(=O)=O)cn3)c(=O)n([C@@H](C)C3CC3)c2n1 |
